This note sets out measurements from US5614526A, “Use of phenoxy-piperzine derivatives” (Hoffmann-La Roche Inc., priority 1995, dated 1997).

Where only a bound is given, the exact number is not on record here.

The first experiment concerns D2 receptor. Kind of experiment: Binding at the D2 receptor, [3H]spiperone displacement, membranes of D2-CHO cells (selectivity vs. D4). The conditions noted are these: ratio of the Ki values at the D2 receptor and at the D4 receptor. On the procedure:
CHO cells (Chinese Hamster Ovary) were used in the test. Crude membranes were isolated by ultracentrifugation from D4 -CHO and D2 -CHO cells and were stored at -80° C. After thawing and homogenizing in a buffer solution (50mM Tris, 1 mM EDTA, 5 mM KCl, 1.5 mM CaCl2, 4 mM MgCl2, pH 7.4) they were incubated at room temperature for 90 minutes with 200 pM [^3 H] spiperone and an increasing concentration (1×10^-11 M to 1×10^-4 M) of test compound. A non-specific binding was established by incubating in the presence of 1×10^-5 M (+)-butaclamol. The unbound radioligand was removed by filtration through a GF/C glass filter and the bound radioactivity was determined by scintillation in a Packard TopCount.
Compounds of formula I were compared with respect to their D2 receptor activity.
With `Cc1cccc(OCC(O)CN2CCN(c3ccccc3)CC2)c1` (stereo not drawn) [Compound 23], the “Sel. vs. D2” value turned out to be 300.

For the compound `CCC(=O)Nc1ccccc1OCC(O)CN1CCN(c2ccccc2)CC1` (stereo not drawn) [Compound 24], the “Sel. vs. D2” value stood at 233.

`COc1cc(O)ccc1N1CCN(CC(O)COc2ccccc2NC(C)=O)CC1` (stereo not drawn) [Compound 25]: the “Sel. vs. D2” value was found to be 1370.

`COc1ccccc1N1CCN(CC(O)COc2ccccc2NS(C)(=O)=O)CC1` (stereo not drawn) [Compound 26]: the “Sel. vs. D2” value is reported as 177.

`COc1ccccc1N1CCN(CC(O)COc2ccc([N+](=O)[O-])cc2NC(C)=O)CC1` (stereo not drawn) [Compound 27]: the “Sel. vs. D2” value was found to be 112.

In the case of `CC(=O)Nc1ccccc1OCC(O)CN1CCN(c2ccccc2[N+](=O)[O-])CC1` (stereo not drawn) [Compound 29], the “Sel. vs. D2” value was 360.

The next experiment deals with T1, dopamine-D4 receptor (Homo sapiens, UniProt P21917).
T1 construct: expressed in transfected cells; host or cells: CHO (Chinese Hamster Ovary) cells, D4-CHO; crude membranes
T1 sequence (P21917 1-419): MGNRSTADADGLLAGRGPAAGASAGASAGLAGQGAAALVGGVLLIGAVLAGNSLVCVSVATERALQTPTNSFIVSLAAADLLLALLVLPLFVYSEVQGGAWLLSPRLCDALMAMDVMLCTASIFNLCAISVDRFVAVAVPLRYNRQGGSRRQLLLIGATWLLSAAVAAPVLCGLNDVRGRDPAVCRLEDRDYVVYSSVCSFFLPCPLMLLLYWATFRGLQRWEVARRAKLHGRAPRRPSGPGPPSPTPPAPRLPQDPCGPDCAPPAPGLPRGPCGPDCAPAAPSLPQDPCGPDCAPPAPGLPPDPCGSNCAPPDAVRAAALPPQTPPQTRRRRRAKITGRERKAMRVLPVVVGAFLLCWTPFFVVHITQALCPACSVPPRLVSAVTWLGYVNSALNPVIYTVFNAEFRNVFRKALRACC
The experiment in a line: Binding at the D4 receptor, [3H]spiperone displacement, membranes of D4-CHO cells. The conditions noted are these: Table 1, 200 pM [3H]spiperone, room temperature, 90 minutes. On the procedure: Compounds of formula I were characterized by their binding behavior at the D4 receptor. CHO cells (Chinese Hamster Ovary) were used in the test. Crude membranes were isolated by ultracentrifugation from D4 -CHO and D2 -CHO cells and were stored at -80° C. After thawing and homogenizing in a buffer solution (50mM Tris, 1 mM EDTA, 5 mM KCl, 1.5 mM CaCl2, 4 mM MgCl2, pH 7.4) they were incubated at room temperature for 90 minutes with 200 pM [^3 H] spiperone and an increasing concentration (1×10^-11 M to 1×10^-4 M) of test compound. A non-specific binding was established by incubating in the presence of 1×10^-5 M (+)-butaclamol. The unbound radioligand was removed by filtration through a GF/C glass filter and the bound radioactivity was determined by scintillation in a Packard TopCount. […] The calculation of the value was effected with ligand.
By Ki is commonly meant a dissociation constant, usually derived from enzyme kinetics or from competition with a known ligand. In the case of `COc1ccccc1N1CCN(CC(O)COc2ccccc2NC(C)=O)CC1` (racemic) [10(rac), N-[2-[2-Hydroxy-3-[4-(2-methoxy-phenyl)-piperazin-1-yl]-propoxy]-phenyl]-acetamide], the Ki is below 100 nM.

`COc1ccccc1N1CCN(CC(O)COc2ccccc2N)CC1` (single isomer, unassigned) [9(+), [+]-1-(2-Amino-phenoxy)-3-[4(2-methoxy-phenyl)-piperazin-1-yl]-propan-2-ol] came in with a Ki below 100 nM.

`COc1ccccc1N1CCN(CC(O)COc2ccccc2NC(C)=O)CC1` (single isomer, unassigned) [11(+), [+]-N-[2-[2-Hydroxy-3-[4-(2-methoxy-phenyl)-piperazin-1-yl]-propoxy]phenyl]-acetamide] displayed a Ki below 100 nM.

Compound `COc1ccccc1N1CCN(CC(O)COc2ccccc2NC(C)=O)CC1` (single isomer, unassigned) [12(-), [-]-N-[2-[2-Hydroxy-3-[4-(2-methoxy-phenyl)-piperazin-1-yl]-propoxy]phenyl]-acetamide] returned an inhibition constant (Ki) below 100 nM.

In the case of `COc1ccccc1N1CCN(CC(COc2ccccc2NC(C)=O)OC(C)=O)CC1` (single isomer, unassigned) [31(+), Ethyl [+]-2-(2-acetylamino-phenoxy)-1-[4-(2-methoxy-phenyl)-piperazin-1-ylmethyl]acetate], the Ki is below 100 nM.

As to `C/C=C/C(=O)Nc1ccccc1OCC(O)CN1CCN(c2ccccc2OC)CC1` (single isomer, unassigned) [Compound 16, [+]-(E)-But-2-enolic acid [2-[2-hydroxy-3-[4-(2-methoxy-phenyl)-piperazin-1-yl]-propoxy]-phenyl]-amide], the Ki is below 100 nM.

The compound `OC(COc1ccccc1)CN1CCN(c2ccccc2)CC1` (stereo not drawn) [Compound 1, 1-Phenoxy-3-(4-phenyl-piperazin-1-yl)-propan-2-ol] yielded a Ki below 100 nM.

As for `Nc1ccccc1OCC(O)CN1CCN(c2ccccc2)CC1` (stereo not drawn) [Compound 2, 1-(2-Amino-phenoxy)-3-(4-phenyl-piperazin-1-yl)-propan-2-ol], the Ki was below 100 nM.

As to `CC(=O)c1ccccc1OCC(O)CN1CCN(c2ccccc2)CC1` (stereo not drawn) [Compound 3, 1-[2-[2-Hydroxy-3-(4-phenyl-piperazin-1-yl)-propoxy]-phenyl]-ethanone], the Ki is below 100 nM.

With `NC(=O)c1ccccc1OCC(O)CN1CCN(c2ccccc2)CC1` (stereo not drawn) [Compound 4, 2-[2-Hydroxy-3-(4-phenyl-piperazin-1-yl)-propoxy]-benzamide], the Ki was below 100 nM.

The compound `OC(COc1cccc(C(F)(F)F)c1)CN1CCN(c2ccc(Cl)cc2)CC1` (stereo not drawn) [Compound 5, 1-[4-(4-Chloro-phenyl)-piperazin-1-yl]-3-(3-trifluoro-methyl-phenoxy)-propan-2-ol] registered a Ki below 100 nM.

`CC(=O)Nc1ccccc1OCC(O)CN1CCN(c2ccccc2C)CC1` (stereo not drawn) [Compound 6, N-[2-[2-Hydroxy-3-(4-o-tolyl-piperazin-1-yl)-propoxy]-phenly]-acetamide]: the Ki was below 100 nM.

`CC(=O)Nc1ccccc1OCC(O)CN1CCN(c2ccccc2C(F)(F)F)CC1` (stereo not drawn) [Compound 7, N-[2-[2-Hydroxy-3-[4-(2-trifluoromethyl-phenyl)-piperazin-1yl]-propoxy]phenyl]-acetamide] displayed an inhibition constant Ki below 100 nM.

Consider `CC(=O)Nc1ccccc1OCC(O)CN1CCN(c2ccccc2O)CC1` (stereo not drawn) [Compound 8, N-[2-[2-Hydroxy-3-[4-(2-hydroxy-phenyl)-piperazin-1-yl]-propoxy]-phenyl]-acetamide], for which the Ki was below 100 nM.

With `CCC(=O)Nc1ccccc1OCC(O)CN1CCN(c2ccccc2OC)CC1` (stereo not drawn) [Compound 13, N-[2-[2-Hydroxy-3-[4-(2-methoxy-phenyl)-piperazin-1-yl]-propoxy]-phenyl]propionamide], the inhibition constant (Ki) was below 100 nM.

The compound `CCCCCC(=O)Nc1ccccc1OCC(O)CN1CCN(c2ccccc2OC)CC1` (stereo not drawn) [Compound 14, Hexanoic acid [2-[2-hydroxy-3-[4-(2-methoxy-phenyl)-piperazin-1-yl]propoxy]-phenyl]-amide] showed an inhibitory constant (Ki) below 100 nM.

`COc1ccccc1N1CCN(CC(O)COc2ccccc2NC(=O)C(C)(C)C)CC1` (stereo not drawn) [Compound 15, N-[2-[2-Hydroxy-3-[4-(2-methoxy-phenyl)-piperazin-1-yl]-propoxy]-phenyl]-2,2-dimethyl-propionamide] yielded a Ki below 100 nM.

The compound `COc1ccccc1N1CCN(CC(O)COc2ccccc2NC(=O)c2ccco2)CC1` (stereo not drawn) [Compound 17, Furan-2-carboxylic acid [2-[2hydroxy-3-[4-(2-methoxy-phenyl)piperazin-1-yl]-propoxy]-phenyl]-amide] displayed a Ki below 100 nM.

`COc1ccccc1N1CCN(CC(O)COc2ccccc2NC(N)=O)CC1` (stereo not drawn) [Compound 18, [2-[2-Hydroxy-3-[4-(2-methoxy-phenyl)-piperazin-1-yl]propoxy]-phenyl]-urea] had a Ki below 100 nM.

Take `COc1ccccc1N1CCN(CC(O)COc2ccc(C)cc2NC(C)=O)CC1` (stereo not drawn) [Compound 19, N-[2-[2-Hydroxy-3-[4-(2-methoxy-phenyl)-piperazin-1-yl]-proxpoxy]-5-methyl-phenyl]-acetamide]: the inhibition constant (Ki) was below 100 nM.

For the compound `COc1ccccc1N1CCN(CC(O)COc2cc(C)ccc2NC(C)=O)CC1` (stereo not drawn) [Compound 20, N-[2-[2-Hydroxy-3-[4-(2-methoxy-phenyl)-piperazin-1-yl]-propoxy]-4-methyl-phenyl]-acetamide], the inhibition constant (Ki) was below 100 nM.

`CCOc1ccccc1N1CCN(CC(O)COc2ccccc2NC(=O)CC)CC1` (stereo not drawn) [Compound 21, N-[2-[3-[4-(2-Ethoxy-phenyl)-piperazin-1-yl]-2-hydroxy-propoxy]-phenyl]propionamide] showed a Ki below 100 nM.

Consider `Nc1ccccc1OCC(O)CN1CCN(c2ccccc2[N+](=O)[O-])CC1` (stereo not drawn) [Compound 22, 1-(2-Amino-phenoxy)-3-[4-(2-nitro-phenyl)-piperazin-1-yl]-propan-2-ol], for which the Ki was below 100 nM.

In the case of `COc1ccccc1N1CCN(CC(COc2ccccc2NC(C)=O)OC(C)=O)CC1` (stereo not drawn) [Compound 30, Ethyl 2-(2-acetylamino-phenoxy)-1-[4-(2-methoxy-phenyl)-piperazin-1-ylmethyl]-acetate], the Ki is below 100 nM.

Staying with this experiment, now noted: Table 2, 200 pM [3H]spiperone, room temperature, 90 minutes.
`Cc1cccc(OCC(O)CN2CCN(c3ccccc3)CC2)c1` (stereo not drawn) [Compound 23] displayed an inhibitory constant (Ki) of 9.6 nM.

The compound `CCC(=O)Nc1ccccc1OCC(O)CN1CCN(c2ccccc2)CC1` (stereo not drawn) [Compound 24] gave an inhibition constant Ki of 29 nM.

The compound `COc1cc(O)ccc1N1CCN(CC(O)COc2ccccc2NC(C)=O)CC1` (stereo not drawn) [Compound 25] came in with a Ki of 10.2 nM.

The compound `COc1ccccc1N1CCN(CC(O)COc2ccccc2NS(C)(=O)=O)CC1` (stereo not drawn) [Compound 26] registered a Ki of 3.2 nM.

Regarding `COc1ccccc1N1CCN(CC(O)COc2ccc([N+](=O)[O-])cc2NC(C)=O)CC1` (stereo not drawn) [Compound 27], affinity was put at a Ki of 15 nM.

For the compound `CC(=O)Nc1ccccc1OCC(O)CN1CCN(c2ccccc2[N+](=O)[O-])CC1` (stereo not drawn) [Compound 29], the inhibition constant (Ki) came to 8.7 nM.
